Assay results published in ChEMBL document CHEMBL6153163, “Novel 6-Substituted-3-Phenylisoindolin-1-ones as Cbl-B Inhibitors for Treating Cancer” (ACS Med Chem Lett, 2025).

target: E3 ubiquitin-protein ligase CBL-B (Homo sapiens, UniProt Q13191); experiment: Inhibition of biotin-tagged Cbl-B (unknown origin) pre-incubated with compound for 60 min followed by Lck addition and measured after 90 mins in presence of ATP by TR-FRET based assay
Sequence (Q13191 whole entry): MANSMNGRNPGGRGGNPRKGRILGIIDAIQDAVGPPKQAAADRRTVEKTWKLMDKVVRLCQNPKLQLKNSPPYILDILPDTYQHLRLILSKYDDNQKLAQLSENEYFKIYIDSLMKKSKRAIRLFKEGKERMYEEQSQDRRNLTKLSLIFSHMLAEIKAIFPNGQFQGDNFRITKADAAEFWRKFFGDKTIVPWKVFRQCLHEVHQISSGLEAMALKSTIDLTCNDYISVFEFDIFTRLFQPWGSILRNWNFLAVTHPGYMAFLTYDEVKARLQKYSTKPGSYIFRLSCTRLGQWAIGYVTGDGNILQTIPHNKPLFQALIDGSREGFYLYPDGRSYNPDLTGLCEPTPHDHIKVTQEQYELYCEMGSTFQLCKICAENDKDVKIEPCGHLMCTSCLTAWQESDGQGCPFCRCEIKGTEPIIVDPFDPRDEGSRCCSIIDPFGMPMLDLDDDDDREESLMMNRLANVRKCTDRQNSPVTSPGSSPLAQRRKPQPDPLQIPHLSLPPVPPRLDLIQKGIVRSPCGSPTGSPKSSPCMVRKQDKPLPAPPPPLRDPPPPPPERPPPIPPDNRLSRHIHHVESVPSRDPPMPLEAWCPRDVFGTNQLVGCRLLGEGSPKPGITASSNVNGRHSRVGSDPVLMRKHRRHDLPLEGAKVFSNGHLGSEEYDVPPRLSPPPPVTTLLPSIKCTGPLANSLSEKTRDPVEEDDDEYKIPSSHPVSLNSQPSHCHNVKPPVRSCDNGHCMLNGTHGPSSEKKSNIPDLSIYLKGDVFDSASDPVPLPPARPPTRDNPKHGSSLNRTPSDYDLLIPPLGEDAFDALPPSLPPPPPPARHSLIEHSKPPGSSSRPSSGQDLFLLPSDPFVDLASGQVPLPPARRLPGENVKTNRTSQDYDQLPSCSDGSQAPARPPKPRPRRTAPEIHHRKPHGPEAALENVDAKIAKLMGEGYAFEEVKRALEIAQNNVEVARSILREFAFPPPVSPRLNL

| Compound | IC50 [nM] |
| --- | --- |
| CC(C)CNCc1cc(Cl)c2c(c1)C(=O)N(c1cccc([C@H](c3nncn3C)[C@H]3C[C@@H](F)C3)c1)C2 | 4.3 |
| CC(C)CNCc1cc(Cl)c2c(c1)C(=O)N(c1cccc([C@H](c3nncn3C)[C@H]3C[C@@H](CC#N)C3)c1)C2 | 4.2 |

Further lines, results first:

| IC50 [nM] | Compound |
| --- | --- |
| 4.1 | Cn1cnnc1[C@]1(c2cccc(N3Cc4c(Cl)cc(CNCC5CCC5)cc4C3=O)c2)C[C@H](Cl)C1 |
| 4.2 | C[C@@H](NCc1cc2c(c(C(F)F)c1)CN(c1cccc([C@H](c3nncn3C)C3CC(F)C3)c1)C2=O)C1CCC1 (stereo partly specified) |
| 3.6 | Cn1cnnc1[C@]1(c2cccc(N3Cc4c(Cl)cc(CNCC5CCC5)cc4C3=O)c2)C[C@@H](Cl)C1 |
| 4 | C[C@@H](NCc1cc2c(c(C(F)F)c1)CN(c1cccc([C@]3(c4nncn4C)C[C@H](Cl)C3)c1)C2=O)C1CCC1 |
